# Source: patent publication US7993681B2, “Methods, compositions and devices for inducing stasis in tissues and organs” (Fred Hutchinson Cancer Research Center, priority 2003, dated 2011)
# How the values were obtained:
# [1] = test system: humans; conditions: around 1000 ppm, more than around 1-2 minutes; cited from earlier work
# [2] = test system: C. elegans embryos; experiment: Viability of nematodes in carbon monoxide based atmospheres; type: in vivo; conditions: for Viability to adulthood: 0.25 kPa O2/CO, 24 hrs
# Description: To achieve specific atmospheric conditions the following apparatus was used: a glass syringe barrel having a tip with a locking device such as a LUER-LOK with the large opening of the barrel sealed with a custom-machined steel and rubber fitting to make an airtight seal was locked to via locking device to the inlet port of an environmental chamber having an inlet and an outlet port each fitted with a locking devices such as a LUER-LOK fitting. A defined gas was humidified and provided to the environmental chamber by first venting the gas from a compressed tank (Byrne Specialty Gas, Seattle, Wash.) through a gas washing bottle (500 ml Kimex) filled with double distilled water. The gas washing bottle was connected to the environmental chamber past a gas-flow meter. A gas flow meter was used to provide a regulated 70 cc/min flow through the environmental chamber throughout the 24 hr incubation.
# To test whether induced, reversible stasis could be achieved in C. elegans nematodes, 2-cell C. elegans embryos, L3 larvae or adult nematodes were collected and exposed to either an environment of effectively 100% CO, an environment of 100% N2, an environment comprising 500 ppm oxygen balanced with carbon monoxide, or to environments comprising 100, 500 or 1000 ppm oxygen balanced with nitrogen at room temperature. Nematodes were visualized using differential interference contrast microscopy (also known as Nomarski optics). Images were collected and analyzed using NIH image and Adobe Photoshop 5.5. Embryos are approximately 50 μm in length.
# Environmental chambers and apparatuses. Oxygen deprivation experiments were carried out using a custom atmospheric chamber designed by W. Van Voorhies (Van Voorhies et al., 2000). The chamber is a 30 mL glass syringe (Fisher #14-825-10B) fitted with a custom steel stopper that is lined with two viton o-rings to ensure a tight seal. The stopper is bored through and has a steel lure lock on the exterior face so that a hose carrying compressed gas can be attached. A defined gas mixture is delivered to the chamber at a constant pressure and flow rate from compressed tanks by passing first through a rotometer (Aalborg, flow-tube number 032-41ST) or mass flow controller (Sierra Instruments #810) to monitor flow rate and then through a 500 ml gas washing bottle (Fisher #K28220-5001) containing 250 ml water to hydrate the gas. ¼″ OD nylon (Cole-Parmer #P-06489-06) or FEP (Cole-Parmer #A-06450-05) tubing was used and connections between tubing and the regulators and between the tubing and the rotometers were made with brass John-Guest-type fittings (Byrne Gas). All other connections were made with either microflow quick-connect fittings (Cole-Parmer #A-06363-57, #A-06363-52) or standard lure fittings (Cole-Parmer #A-06359-37, #A-06359-17).
# Viability of nematodes in carbon monoxide based atmospheres. 30-60 embryos were harvested from continuously maintained Bristol N2 and hif-2(ia04) strains as described above. Environmental chambers were continuously perfused at room temperature with pure CO (grade CP) or 500 ppm O2/CO at 70 cc/min for 24 hrs. To achieve 2500 ppm O2/CO or 2500 ppm O2/N2, 5000 ppm O2/N2 was mixed at a 1:1 ratio with either pure CO or pure N2 using two mass flow controllers (Sierra Instruments 810) to precisely monitor flow. Each gas was delivered into a 3-way valve (Cole-Parmer #A-30600-23) at 50 cc/min and the resulting mixture was then passed through a gas washing bottle and into an environmental chamber throughout the 24 hour exposure. All gases were supplied by Byrne Gas (Seattle, Wash.). The 500 ppm O2/CO mixture was certified to 2% of the oxygen content and contained 7000 ppm N2 to ensure a consistent O2/CO ratio throughout the use of the tank.
# Cell biological analysis. […]
# [3] = test system: human keratinocytes; experiment: Preservation of human skin in carbon monoxide, keratinocyte colony formation; type: cell-based
# Protocol: Three human foreskins were obtained for this purpose. The foreskin tissue was preserved in keratinocyte growth medium (KGM) containing insulin, EGF (0.1 ng/ml), hydrocortisone ([…]) and bovine pituitary extract (approx. 50 micrograms/ml of protein). Foreskins were rinsed in PBS, and excess fatty tissue was removed. Each foreskin sample was divided into 2 equal pieces. Each piece was placed into a separate container containing a solution of PBS with 24 mg/ml of Dispase II (from Bacillus Polymyxa EC 3.4.24.4:Roche Diagnostics Corp., Indianapolis, Ind.). One container (containing a foreskin piece in PBS with Dispase II) was kept in a humid chamber in a fume hood. The other container (with the other half of the foreskin in PBS with Dispase II) was placed in the same fume hood in an environmental chamber perfused with humidified 100% CO. Both samples were maintained at room temperature for 24 hrs. Methods used to establish defined atmospheric conditions were identical to those used in Example 1.
# Following the 24 hr exposure to normoxia or 100% CO, keratinocytes were isolated from the foreskins according to the method described by Boyce et al. (1983; 1985; each of which is incorporated herein by reference in its entirety). Briefly, the epidermis from each foreskin sample was removed to a fresh dish containing PBS. The epidermis was minced and homogenized prior to incubation in 3 ml of 0.05% Trypsin, 1 mM EDTA for 5 minutes, at room temperature, to separate basal cells from the epidermis. After incubation, 6 ml of 400 μg/ml (micrograms per ml) Soybean Trypsin Inhibitor, 1 mg/ml BSA was added and the samples were centrifuged at 900 RPM. The supernatant from each sample was discarded and the sample pellets were resuspended in 10 ml of KGM. Each sample was split into two 10 cm plates each of which contained 5 ml KGM and 100 μl of HEPES pH 7.3 (N-2-hydroxyethylpiperazine-N′-2-ethane sulfonic acid). The plates were incubated in a 37° C. incubator perfused with 95% room air, 5% carbon dioxide for five days.
# Cells were inspected visually using an inverted phase contrast microscope. […] Quantitation of the number of viable keratinocytes as judged by colony formation was quantified for two of the three foreskins.
# [4] = test system: mice; experiment: Respirometry of mice exposed to H2S; type: in vivo, mouse
# Protocol: (§1) Exposure of Mice to Regulated Atmosphere.
# Measurements were over a period of 15 minutes, with the mice in a 0.5 L sealed environmental chamber with flow rates of 500 cc/min. Consumption of oxygen is obtained by subtracting the oxygen concentration when the mouse is present, from the control when the mouse is absent. Likewise, production of carbon dioxide is obtained by subtracting the carbon dioxide concentration when the mouse is present from the control when the mouse is absent. RQ stands for respiratory quotient, and is equal to the ratio of carbon dioxide produced to oxygen […]. […] The change in the respiratory quotient reflects the disparity oxygen consumption and carbon dioxide production by the mice in the presence or absence of the H2S.
# [5] = test system: mice; conditions: 80 ppm, cited from earlier work
# [6] = test system: mice; conditions: SHIRPA tests before and after exposure
# [7] = test system: rats; conditions: cited from earlier work
# [8] = test system: humans; conditions: cited from earlier work
# [9] = test system: mice; experiment: Core body temperature, heart rate and movement of mice exposed to H2S (telemetry); type: in vivo, mouse
# Description: Implantation of telemetry devices.
# as §1
# Regulation of Ambient Temperature. […] Mice were exposed to regulated atmosphere as described above.
# [10] = 80 ppm, 15 minutes, 0.5 L chamber, 500 cc/min
# [11] = warming phase after 80 ppm, cabinet 10.5° C.
smiles,measurement,setting,value
"[C-]#[O+] [CO, Carbon monoxide]",lethality,[1],can expire
same,embryogenesis during exposure,[2]; 0.05 kPa O2 balanced with carbon monoxide,arrested embryogenesis
same,Viability to adulthood,[2]; hif-1(ia04) embryos,83.9% ± 13.8
same,Viability to adulthood,[2]; wild-type (N2 strain) embryos,78.7%
same,lethality and suspended animation,"[2]; 100% carbon monoxide, 24 hr, room temperature, nematodes",not lethal and induced reversible suspended animation
same,progression through embryogenesis during exposure,[2]; 101 kPa CO,did not progress through embryogenesis
same,suspended animation and survival,"[2]; 500 ppm oxygen balanced with carbon monoxide, 24 hr",entered into suspended animation and survived
same,skin cell survival in CO versus room air,"[3]; 100% CO, 24 hrs, human skin",100 fold
same,Total colonies,"[3]; Foreskin 1, 100% CO 24 hr",542 colonies (many of which
same,Total colonies,"[3]; Foreskin 2, 100% CO 24 hr",780 colonies (many of which
same,growth of keratinocyte populations,"[3]; foreskin 24 hr in 100% CO at room temperature, then five days culture, three foreskins",significant growth
"S [H2S, Hydrogen sulfide]",decrease in CO2 production,[4]; 80 ppm (FIG. 4A),approximately 3 fold
same,time to decrease in CO2 production / new baseline,[4]; 80 ppm (FIG. 4A),approximately 5 minutes
same,drop in carbon dioxide production,[4]; [10],3-4 fold
same,drop in oxygen consumption,[4]; [10],2-3 fold
same,decrease in cellular respiration,"[4]; 80 ppm, core temperature 15° C.",1-20 fold
same,RQ,[4]; H2S present (80 ppm),0.58
same,Consumption of oxygen,"[4]; H2S present (80 ppm), control minus mouse present",1300 ppm
same,[CO2] ppm,"[4]; mouse present, H2S present (80 ppm)",750 ppm
same,adverse effects incl. gross and histopathological examination,"[5]; 6 hrs per day, 5 days per week, 90 days",no observed adverse effect
same,tolerability,[5]; exposures lasting up to ten weeks,innocuous
same,behavioral differences after gas exposure,[6],no detectable behavioral differences
same,perinatal neurotoxicity,"[7]; 20 or 50 ppm, 7 hours per day, gestation through post-natal day 21, rats",longer dendritic branches with reduced aborization of cerebellar Purkinje cells
same,adverse effects incl. gross and histopathological examination,"[7]; 80 ppm, 6 hrs per day, 5 days per week, 90 days, rats",no observed adverse effect
same,"perinatal study, neuropathology and behavior of rat pups",[7]; 80 ppm,no neuropathological effects
same,discriminated avoidance responses,"[7]; moderate levels, immediately after end of exposure, rats",inhibits discriminated avoidance responses
same,radial arm maze learning,"[7]; moderate levels, rats",interferes with the ability of rats to learn a baited radial arm maze task
same,acute effect of a single breath,[8]; atmosphere with 0.1% hydrogen sulfide,immediately collapse
same,OSHA limit for humans,[8],10 ppm
same,acute effect of exposure,[8]; extreme levels (500 ppm),sudden collapse and unconsciousness
same,core temperature,"[9]; 80 ppm, 90 min, incubator lowered to 18° C., first mouse",28.6 °C
same,heart rate,"[9]; 80 ppm, 3 hrs, dropped from 600 bpm",250 bpm
same,core temperature,"[9]; 80 ppm, 3 hrs, incubator 18° C., second mouse",18.6 °C
same,recovery after rewarming in room air,"[9]; 80 ppm, 6 hrs, seven mice",successfully recovered
same,lowest average core body temperature,"[9]; 80 ppm, 6 hrs, seven mice, ambient temperature 13° C.",15 °C
same,lowest core body temperature recorded,"[9]; 80 ppm, ambient dropped to less than 10° C. (FIG. 7)",10.7 °C
same,time to recover activity after removal from gassing chamber,"[9]; 80 ppm, cabinet 10° C., non-telemetry mouse",approximately 90 min
same,core temperature (estimation from slope of the drop),"[9]; 80 ppm, cabinet 10° C., telemetry mouse, electronics failed at 15.3° C.",approximately 12.5 °C
same,core body temperature,"[9]; 80 ppm, cabinet 10.5° C., approximately six hours",10.5 °C
same,time to return to normal range of core temperature and activity,"[9]; after 90 min at 80 ppm, chamber perfused with room air",≤ 60 min
same,behavior of the animals after exposure,"[9]; maintained for 4 weeks after 6 hr at 80 ppm, 15° C.",no apparent change in the behavior
same,core body temperature at which normal movement and respiration were fully apparent,[9]; [11],25 °C
same,core body temperature at which weak respiration was observed,[9]; [11],14 °C
